Experimental data as given in patent US12404244B2, “Pan-KIT kinase inhibitor having quinoline structure and application thereof” (Tarapeutics Science Inc., priority 2018, dated 2025).
Read-outs that look alike come from different tables or passages of the source.

Key:
[1] = system: TEL-KIT-BaF3 (stably expressing KIT wild-type kinase); assay: Proliferation of TEL-KIT-BaF3 cells (CCK-8); format: cell-based, mouse; details: Mus musculus, read-out: GI50 TEL-KIT-BaF3
Text: (§1) Compounds as provided herein were further evaluated for their inhibitory effects on proliferation of cancer cells by testing their effects on growth of cancer cells. In this example the following cells were used: primary mouse B cells BaF3 (purchased from ATCC), GIST-T1 cells of the human gastrointestinal stromal tumor cell line (expressing wild-type KIT gene) (purchased from Cosmo Bio Co., Ltd. (Japan)). The present lab further constructed and used the following: mouse Tel-Kit-BaF3 (stably expressing KIT wild-type kinase), mouse Tel-Kit/T670I-BaF3 (stably expressing KIT T670I mutant kinase), mouse Tel-Kit/V559A-BaF3 (stably expressing KIT V559A mutant kinase), mouse Tel-Kit/V559D-BaF3 (stably expressing KIT V559D mutant kinase), mouse Tel-Kit/V559G-BaF3 (stably expressing KIT V559G mutant kinase), mouse Tel-Kit/V560D-BaF3 (stably expressing KIT V560D mutant kinase), mouse Tel-Kit/L576P-BaF3 (stably expressing KIT L576P mutant kinase), mouse Tel-Kit/V654A-BaF3 (stably expressing KIT V654A mutant kinase), mouse Tel-Kit/V654A/V559D-BaF3 (stably expressing KIT V654A V559D mutant kinase), mouse Tel-Kit/T670E-BaF3 (stably expressing KIT T670E mutant kinase), mouse Tel-Kit/T670I/V559D-BaF3 (stably expressing KIT T670I V559D mutant kinase), mouse Tel-Kit/S709F-BaF3 (stably expressing KIT S709F mutant kinase), mouse Tel-Kit/D816E-BaF3 (stably expressing KIT D816E mutant kinase), mouse Tel-Kit/D816H-BaF3 (stably expressing KIT D816H mutant kinase), mouse Tel-Kit/D820E-BaF3 (stably expressing KIT D820E mutant kinase), mouse Tel-Kit/D820G-BaF3 (stably expressing KIT D820G mutant kinase), mouse Tel-Kit/D820Y-BaF3 (stably expressing KIT D820Y mutant kinase), mouse Tel-Kit/N822K-BaF3 (stably expressing KIT N822K mutant kinase), mouse Tel-Kit/Y823D-BaF3 (stably expressing KIT Y823D mutant kinase), mouse Tel-Kit/A829P-BaF3 (stably expressing KIT A829P mutant kinase), GIST-T1-T670I cells of the human gastrointestinal stromal tumor cell line (expressing KIT-T670I mutant gene). The above cell lines were constructed by: amplifying respectively the sequences of human KIT and various mutant kinase regions of KIT via PCR, inserting the fragments respectively into MSCV-Puro vectors having a N-terminal TEL fragment and/or a NPM fragment and/or a TPR fragment (purchased from Clontech), transfecting mouse BaF3 cells with the vectors by means of retrovirus to obtain stably transfected cells, removing the growth factor IL-3, and thereby eventually obtaining cell lines that depend on the transferred protein KIT or various mutants of KIT. The GIST-T1-T670I (expressing C-KIT-T670I mutant gene) cell line was constructed by our laboratory as follows: designing sgRNA that targeted a region around T670 of the KIT gene with CRISPR Design Tool (website: crispr.mit.edu, Zhang Feng Lab), cloning it into pSpCas9(BB)-2A-Puro vector; co-transfecting cells with the resultant vector and a single-stranded oligonucleotide having T670I site mutation that is near to T670, subjecting the resultant to antibiotics screening, followed by dilution, and monocellular culture in a 96-well plate; validating the site T670 of the cells by sequence detection via Sanger sequencing.
(§2) The cells after incubation were detected using CCK-8 (purchased from MedChem Express, Shanghai, China) cell viability assay kit (CCK-8 may be reduced by dehydrogenase in living cells to a highly water-soluble yellow formazan product, and the amount of the resultant formazan is proportional to the number of living cells), the number of living cells were quantified with a microplate reader, and GI50 of the compounds and the control compounds were calculated (the results shown in Table 2 and Table 3).

[2] = system: BaF3; assay: Proliferation of parental BaF3 cells (CCK-8); format: cell-based, mouse; details: Mus musculus, read-out: GI50 BaF3
Text: as §1, §2

Row | GI50 ([1]; KIT wild-type, 72 hours, CCK-8) [nM] | Structure (SMILES) | GI50 ([1]; 72 h) [nM] | GI50 ([2]; BaF3, 72 h) [nM] | GI50 ([2]; BaF3 parent cells, 72 hours, CCK-8) [nM]
1 | – | COc1cc2nccc(Oc3ccc(NC(=O)Cc4ccc(C)c(C(F)(F)F)c4)cc3)c2cc1OC [Example 1, N-(4-((6,7-dimethoxyquinolin-4-yl)oxy)phenyl)-2-(4-methyl-3-(trifluoromethyl)phenyl)acetamide] | 17 | 7260 | –
2 | 1 | COc1cc2nccc(Oc3ccc(NC(=O)Cc4ccc(Cl)c(C(F)(F)F)c4)cc3)c2cc1OC [Example 2, N-(4-((6,7-dimethoxyquinolin-4-yl)oxy)phenyl)-2-(4-chloro-3-(trifluoromethyl)phenyl)-acetamide] | – | – | 5970
